Assay results taken from US8354447B2, “mGLU receptors antagonists for treating disorders associated with mGLU receptors including addiction and depression” (The Scripps Research Institute, priority 2002, dated 2013).
Counter-ions that a name gives are not always drawn. Like-named read-outs stand apart in the source and are kept apart here.

How the values were obtained:
dopamine transporter = target: T1, dopamine transporter (Homo sapiens, UniProt Q01959); conditions: therapeutically effective doses, humans (Meyer et al. 2002); cited from earlier work
T1 construct: host or cells: living human brain (in vivo imaging)

male Wistar rats [1] = experiment: ICSS reward thresholds under baseline conditions, bupropion; assay type: in vivo, rat; conditions: bupropion 10-60 mg/kg IP, all doses tested, dose-dependent up to 40 mg/kg
Description: For each quarter turn, subjects received a 500 ms train of 0.1 ms cathodal square wave pulses at a frequency of 100 Hz. After successful acquisition of the response, defined as 200 consecutive reinforcements within allotted time period (usually <20 min) subjects were trained on a modification of the Kornetsky and Esposito discrete-trial currentthreshold procedure (Kornetsky and Esposito 1979), as described previously by Markou and Koob (1992).
Trials began with an electrical stimulus followed by a 7.5-s response window within which the animal could make a response to receive a second contingent stimulus identical to the initial noncontingent stimulus. A response during this 7.5-s window was considered a positive response, whereas the lack of a response was considered a negative response. Additional responses during a 2-s period immediately following a positive response had no consequence. The intertrial interval (ITI) that followed either a positive response or the end of the response window (in the case of a negative response) ranged from 7.5 to 12.5 s with an average duration of 10 s. […] Subjects then were tested on a current-threshold procedure in which stimulus intensities were varied during four alternating descending and ascending series with a step size of 5 mA. […]

male Wistar rats [2] = experiment: ICSS thresholds during and after withdrawal from chronic nicotine, bupropion; assay type: in vivo, rat
Excerpt: Trials began with an electrical stimulus followed by a 7.5-s response window within which the animal could make a response to receive a second contingent stimulus identical to the initial noncontingent stimulus. A response during this 7.5-s window was considered a positive response, whereas the lack of a response was considered a negative response. Additional responses during a 2-s period immediately following a positive response had no consequence. The intertrial interval (ITI) that followed either a positive response or the end of the response window (in the case of a negative response) ranged from 7.5 to 12.5 s with an average duration of 10 s. […] Subjects then were tested on a current-threshold procedure in which stimulus intensities were varied during four alternating descending and ascending series with a step size of […]. Blocks of three trials were offered at each current step with the starting current of the first descending series set at […] above the subjects' individual baseline thresholds estimated at the end of preliminary training. […] An ascending series was terminated after two consecutive blocks of trials during which the animal made positive responses on at least two out of the three trials or after 15 successive increments were presented. The mean of the four current thresholds from the alternating series was defined as the subject's ICSS threshold for that session. A series was terminated after either 15 stimulus increments (or decrements) had occurred, or after the determination of the threshold for the series (see below). Each test session typically lasted 30 min.
Naive animals were prepared with osmotic minipumps containing either an individualized nicotine solution (3.16 mg/kg per day, free base) or saline. […] After implantation of the minipumps, thresholds were assessed daily thereafter to assess the effects of chronic nicotine exposure on reward thresholds. Seven days (exactly seven 24-h periods) after pump insertion, the pumps were removed in order to precipitate the nicotine withdrawal syndrome. ICSS thresholds were measured 12, 18, 24, 36, 48 and 72 h after pump removal. Animals were injected with bupropion (0, 10, 20, 40 mg/kg IP; n=8-11) 30 min prior to the 18-h time point.

male Wistar rats [3] = experiment: Somatic signs of the nicotine withdrawal syndrome; assay type: in vivo, rat; conditions: for total number of somatic signs: 24 h post pump removal, 12.5 h postbupropion
Description: Rats were placed individually in transparent plastic cylindrical containers (30×38 cm) in which they could move freely. Subjects were habituated to the containers for 10 min each day over 3 days before the first test session. During the test sessions the rats were observed blindly by an experienced observer for 10 min and the frequency of the following signs was recorded based on a checklist of nicotine abstinence signs (Hildebrand et al. 1999; Watkins et al. 2000; Malin 2001): body shakes, chews, cheek tremors, escape attempts, eye blinks, foot licks, gasps, genital licks, head shakes, ptosis, scratches, teeth chattering, writhes and yawns. Multiple successive counts of any sign required a distinct pause between episodes. Ptosis, if present continuously, was only counted once per minute. For statistical analyses, the total number of somatic signs was defined as the sum of individual occurrences of the above mentioned withdrawal signs. Further, the categories of “abdominal constrictions” included gasps and writhes; “facial fasciculation” included cheek tremors, chews, and teeth chattering; and “miscellaneous other signs” included shakes, escape attempts, licks, scratches, and yawns.
Separate drug-naive rats were prepared with osmotic minipumps containing nicotine (3.16 mg/kg per day for 7 days) dissolved in saline. […] Further, this nicotine dose was selected to allow direct comparison of the effects of bupropion on somatic signs (present experiment 4) and on reward threshold elevations (experiment 3 described above) observed during nicotine withdrawal. To induce the somatic signs of nicotine withdrawal the minipumps were removed 6 days and 18 h after implantation. The behavioral observations were conducted 6, 12 and 24 h after the removal of the minipumps. The rats were injected with bupropion (0, 5, 10, 20, 40 mg/kg, IP; n=6-8), 30 min prior to the 12-h time point. The selection of the time points was based on the time-course of the expression of the somatic signs after the termination of nicotine exposure (Epping-Jordan et al. 1998; Harrison et al. 2001a; Semenova and Markou 2003; Skjei and Markou 2003).

rats = conditions: 28-day treatment, 20 mg/kg (McCarter and Kokkinidis 1988); cited from earlier work
male Wistar rats [4] = system: male Wistar rats
Description: Trials began with an electrical stimulus followed by a 7.5-s response window within which the animal could make a response to receive a second contingent stimulus identical to the initial noncontingent stimulus. A response during this 7.5-s window was considered a positive response, whereas the lack of a response was considered a negative response. Additional responses during a 2-s period immediately following a positive response had no consequence. The intertrial interval (ITI) that followed either a positive response or the end of the response window (in the case of a negative response) ranged from 7.5 to 12.5 s with an average duration of 10 s. […] Subjects then were tested on a current-threshold procedure in which stimulus intensities were varied during four alternating descending and ascending series with a step size of 5 mA. Blocks of three trials were offered at each current step with the starting current of the first descending series set at 30-40 mA above the subjects' individual baseline thresholds estimated at the end of preliminary training. […] An ascending series was terminated after two consecutive blocks of trials during which the animal made positive responses on at least two out of the three trials or after 15 successive increments were presented. The mean of the four current thresholds from the alternating series was defined as the subject's ICSS threshold for that session. A series was terminated after either 15 stimulus increments (or decrements) had occurred, or after the determination of the threshold for the series (see below). Each test session typically lasted 30 min.

T1 sequence (Q01959 whole entry): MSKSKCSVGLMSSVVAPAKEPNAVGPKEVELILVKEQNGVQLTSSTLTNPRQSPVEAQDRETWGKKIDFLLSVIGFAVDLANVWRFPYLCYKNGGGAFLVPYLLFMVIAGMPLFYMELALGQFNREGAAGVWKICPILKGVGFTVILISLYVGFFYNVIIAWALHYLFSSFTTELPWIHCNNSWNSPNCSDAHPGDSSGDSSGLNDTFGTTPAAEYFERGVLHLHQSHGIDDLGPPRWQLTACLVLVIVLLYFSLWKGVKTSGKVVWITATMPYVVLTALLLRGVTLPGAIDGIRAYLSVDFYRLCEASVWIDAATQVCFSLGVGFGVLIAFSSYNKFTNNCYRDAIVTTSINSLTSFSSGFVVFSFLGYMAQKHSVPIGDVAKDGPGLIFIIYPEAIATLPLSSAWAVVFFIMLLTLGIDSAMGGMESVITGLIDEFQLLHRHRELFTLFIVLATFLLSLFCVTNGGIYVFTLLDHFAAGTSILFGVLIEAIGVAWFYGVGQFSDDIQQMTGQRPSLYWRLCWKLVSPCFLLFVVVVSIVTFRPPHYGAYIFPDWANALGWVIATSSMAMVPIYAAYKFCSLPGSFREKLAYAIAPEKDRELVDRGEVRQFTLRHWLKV

CC(NC(C)(C)C)C(=O)c1cccc(Cl)c1 (stereo not drawn) [bupropion, Bupropion hydrochloride]
occupancy at the dopamine transporter (dopamine transporter): 22%
brain reward thresholds (male Wistar rats [1]): lowered brain reward thresholds compared to the vehicle conditions
area under the curve of the threshold data, 72-h withdrawal period (male Wistar rats [2]; bupropion 40 mg/kg, nicotine-pretreated animals): completely reversed
reward thresholds (male Wistar rats [2]; bupropion 40 mg/kg, nicotine-pretreated animals, 24 h time point): still exhibited a significant (P<0.001) reduction in reward thresholds
reward thresholds (male Wistar rats [2]; bupropion 10, 20, 40 mg/kg, thirty minutes after administration (18-h time point), nicotine- or saline-pretreated): significant and dose-dependent lowering of reward thresholds at all doses
reduction in threshold (male Wistar rats [2]; bupropion, saline pretreated animals, 24 h): short-lived and completely reversed at the next time point tested
long-term effect on somatic signs (male Wistar rats [3]; acute bupropion, 12.5 h): has no long-term (12.5 h) effect on the expression of the somatic signs of nicotine withdrawal
total number of somatic signs (male Wistar rats [3]; bupropion 5 mg/kg): 18.6±4
total number of somatic signs (male Wistar rats [3]; bupropion 10 mg/kg): 17.1±4.6
total number of somatic signs (male Wistar rats [3]; bupropion 20 mg/kg): 14.1±2.2
total number of somatic signs (male Wistar rats [3]; bupropion 40 mg/kg): 14.6±2.6
abdominal constrictions (writhes and gasps) (male Wistar rats [3]; bupropion 10-40 mg/kg, 12-h withdrawal time point): reversed the withdrawal-induced increase in abdominal constrictions
total somatic signs (male Wistar rats [3]; bupropion 20-40 mg/kg, 30 min prior to the 12-h withdrawal timepoint): resulted in a reversal of the expression of total somatic signs
rate of responding for ICSS (rats): had no effect on the rate of responding for ICSS
brain reward thresholds (male Wistar rats [4]; bupropion 5 mg/kg alone): without effect on reward thresholds when given alone
reward-enhancing effects of acute nicotine (male Wistar rats [4]; bupropion 5 mg/kg with nicotine 0.25 mg/kg): completely reversed the reward-enhancing effects of acute nicotine
brain reward thresholds (male Wistar rats [4]; bupropion 10 and 20 mg/kg in combination with nicotine 0.25 mg/kg): resulted in threshold lowerings that were not significantly different from threshold lowerings induced by nicotine administration alone
brain reward thresholds (male Wistar rats [4]; bupropion 10 and 20 mg/kg, saline co-treated): lowered brain reward thresholds in animals that were co-treated with saline
